Data taken from paper PMC11537999, “Identification of human pregnane X receptor antagonists utilizing a high-throughput screening platform” (Frontiers in Pharmacology, 2024).

Tested on: CYP3A4 mRNA expression
Experiment: CYP3A4 mRNA expression by qRT-PCR in HepaRG cells treated with compound alone
Type: cell-based, human
Conditions: 24 h, compound at its IC70 concentration, vs DMSO
Experimental: Fully differentiated NoSpin™ HepaRG™ cells (Lonza, Walkersville, Maryland) were seeded into 12-well collagen-coated plates (Corning) at a density of 8 × 10^5 cells/well using Williams’ E medium (ThermoFisher) supplemented with HepaRG™ thawing and plating medium supplement (Lonza), 25 U/mL penicillin, and 25 μg/mL streptomycin (Invitrogen). The cells were then placed into a 37°C and 5% CO2 incubator for 3 days including a media change before treatment. Cells were then treated with the vehicle control (final concentration of 0.1% DMSO), the positive controls, or test compounds for 24 h before harvesting.
Total RNA was extracted from the cell lysate using an RNeasy Mini kit (Qiagen) according to the manufacturer’s instructions. RNA was reverse transcribed to cDNA using a High-Capacity RNA-to-cDNA kit (Applied Biosystems). CYP3A4 and CYP2B6 mRNA expression were both measured and normalized to the glyceraldehyde-3-phosphate dehydrogenase (GAPDH) housekeeping gene. Real-time PCR was completed using a QuantStudio Real-Time PCR system (Applied Biosystems) with TaqMan probes (CYP3A4 Assay ID: Hs00604506_m1, CYP2B6 Assay ID: Hs04183483_g1, GAPDH Assay ID: Hs99999905_m1, ThermoFisher Scientific, Waltham, MA). Following amplification, induction values were calculated using the equation: Fold = 2^−ΔΔCt, where ΔCt represents the difference in number of cycles required to reach the Ct threshold between CYP3A4 or CYP2B6 and GAPDH, and ΔΔCt represents the relative change in these differences between the control (DMSO) and treatment groups. Experimental data are expressed as a mean of triplicate values ±SD. Statistical analysis was performed using one-way analysis of variance with post hoc Dunnett’s analysis. The statistical significance values were set at p < 0.05 (*), p < 0.01 (**), and p < 0.001 (***).
To overcome the previous screening limitations, we used this more physiologically relevant cell line, HepaRG cells, to run follow-up studies with the PXR antagonists identified from the primary screen which used immortalized cell lines without a metabolic component. Using HepaRG cells, the 20 potential PXR antagonists were treated for 24 h and harvested for mRNA (Supplementary Figure S1).
FIGURE 3 HepaRG cells were treated with the top 20 most promising PXR antagonists identified from the high-throughput screen. […] The concentrations for the test compounds were the IC70 values from the original NPACT screen. Real-time PCR was used to analyze the mRNA expression of CYP3A4. Each bar represents the mean ± SD in triplicate. *, p < 0.05; **, p < 0.01.

| SMILES | inhibition of CYP3A4 mRNA expression (in words) |
| --- | --- |
| COc1cc(-c2cn(C3CCc4c(F)cccc4N(CC(F)(F)F)C3=O)nn2)ccc1-n1cnc(C)c1 (centres unmarked) [GSM2] | significantly inhibited CYP3A4 mRNA expression |
| CC(=O)O[C@H]1C[C@@]2(C)[C@@H](C[C@@H](O)[C@H]3[C@@]4(C)CC[C@@H](O)[C@@H](C)[C@@H]4CC[C@@]32C)/C1=C(\CCC=C(C)C)C(=O)O [fusidic acid] | significantly inhibited CYP3A4 mRNA expression |
